Results from patent US20150368248A1, “2-SUBSTITUTED-6-BIARYLMETHYLAMINO-9-CYCLOPENTYL-9H-PURINE DERIVATIVES, USE THEREOF AS MEDICAMENTS, AND PHARMACEUTICAL COMPOSITIONS” (UNIVERZITA PALACKEHO V OLOMOUCI, priority 2013, published 2015).
pIC50: −log10 of the molar value. Like-named read-outs stand apart in the source and are kept apart here.

Assays:
[1] = test system: caspase-3/7 activity in Hep3B cell line; test: One-step cellular caspase-3/7 activity assay; assay type: cell-based, human; conditions: 24 hours, 0 nM = 1.00
Procedure: (§1) Measurements of proapoptotic properties of new compounds were based on quantification of enzymatic activities of caspases, concretely caspases-3/7. Activity of cellular caspase-3/7 was measured according to Carrasco et al., 2003, BioTechniques, 34(5): 1064-67. Briefly, Hep3B and PLC/PRF/5 cells were incubated in the densities of 10000 cells/well in a 96-well plate overnight. Next day, the compounds in appropriate concentrations were added and cells were incubated for the 24 hours. After incubation, 3× caspase-3/7 assay buffer (150 mM HEPES pH 7.4, 450 mM NaCl, 150 mM KCl, 30 mM MgCl2, 1.2 mM EGTA, 1.5% Nonidet P40, 0.3% CHAPS, 30% sucrose, 30 mM DTT, 3 mM PMSF) with 150 μM Ac-DEVD-AMC as a substrate (Sigma-Aldrich) was added to the wells and plates were incubated at […]. The caspase-3/7 activity was measured after 6 hours using Fluoroskan Ascent microplate reader (Labsystems) at 346 nm/442 nm (excitation/emission).

[2] = test system: caspase-3/7 activity in PLC/PRF/5 cell line; test: One-step cellular caspase-3/7 activity assay; assay type: cell-based, human; conditions: 24 hours incubation, relative to 0 nM = 1.00
Procedure: as §1

[3] = test system: p53-regulated transcription in Arn8 cells; test: p53-dependent transcriptional activity, β-galactosidase reporter; assay type: cell-based; conditions: 24 h incubation
Procedure: Stronger anticancer activity of the compounds is enhanced by its positive impact on stability and activity of the tumour suppressor p53. To measure p53-dependent transcriptional activity, β-galactosidase activity was quantified in the melanoma cell line Arn8, which had been established using stable transfection of cells with a p53-responsive reporter construct pRGCAfoslacZ (Frebung et al., Cancer Res., 52, 1992-6976). Briefly, after 24 h incubation with the inhibitors the Arn8 cells were permeabilized with 0.3% Triton X-100 for 15 min and then 4-methylumbelliferon-β-D-galactopyranoside was added as a substrate to the final concentration of 80 μM. After 1 h the fluorescence of product 4-methylumbelliferon was measured at 355/460 nm (ex/em) with a Fluoroskan Ascent microplate reader (Labsystems). Data in Tab. 8 present that series of 2-substituted-6-biarylmethylamino-9-cyclopentyl-9H-purine derivatives show a dose-dependent activatory effect on p53-regulated transcription, with the maximum impact observed between 100 and 500 nM concentrations for most of prepared compounds (Tab. 8).

CDK1/cyclin B = biological target: T1, CDK1/cyclin B (Homo sapiens, UniProt P06493); test: Kinase inhibition assay, recombinant kinase, [γ-33P]ATP; assay type: biochemical
T1 construct: made in house; host or cells: Sf9 insect cells (baculovirus)
T1 sequence (P06493 whole entry, species assumed): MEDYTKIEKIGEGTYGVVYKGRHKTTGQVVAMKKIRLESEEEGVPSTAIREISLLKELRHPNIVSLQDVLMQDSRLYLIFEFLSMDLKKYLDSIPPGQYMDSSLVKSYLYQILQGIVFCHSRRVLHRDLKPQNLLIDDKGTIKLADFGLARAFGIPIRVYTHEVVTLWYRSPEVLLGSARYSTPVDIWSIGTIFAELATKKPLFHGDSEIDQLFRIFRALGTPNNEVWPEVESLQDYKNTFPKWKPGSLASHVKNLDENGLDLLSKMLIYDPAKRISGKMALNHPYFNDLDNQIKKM
T1 sequence (P14635 whole entry partner, species assumed): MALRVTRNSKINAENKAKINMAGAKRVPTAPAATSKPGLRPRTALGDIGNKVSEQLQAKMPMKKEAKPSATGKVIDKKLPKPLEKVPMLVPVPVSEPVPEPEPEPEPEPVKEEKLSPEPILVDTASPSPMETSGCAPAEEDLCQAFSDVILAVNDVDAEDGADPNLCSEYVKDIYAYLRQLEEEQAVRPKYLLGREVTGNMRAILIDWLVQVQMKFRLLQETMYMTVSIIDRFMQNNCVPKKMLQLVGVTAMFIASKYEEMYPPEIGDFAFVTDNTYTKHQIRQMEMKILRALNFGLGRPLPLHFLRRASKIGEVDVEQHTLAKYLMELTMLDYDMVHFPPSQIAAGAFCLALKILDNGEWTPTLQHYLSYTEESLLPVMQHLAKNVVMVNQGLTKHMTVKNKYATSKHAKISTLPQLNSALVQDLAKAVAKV
Procedure: CDK2/Cyclin E kinase was produced in Sf9 insect cells via baculoviral infection and purified on a NiNTA column (Qiagen). CDK5/p35, CDK7Cyclin H/MAT1 and CDK9/Cyclin T1 was purchased from ProQinase GmbH. […] The reactions were stopped by adding 5 μL of 3% aq H3PO4. Aliquots were spotted onto P-81 phosphocellulose (Whatman), washed 3× with 0.5% aq H3PO4 and finally air-dried.
CDK1/cyclin B and CDK2/cyclin E kinases were produced in Sf9 insect cells via baculoviral infection, while CDK5/p35, CDK7/cyclin H/MAT1, and CDK9/cyclin T1 were purchased from ProQinase (Freiburg, Germany) and assayed as described previously (35). The kinase reactions were assayed with 1 mg/ml histone H1 (for CDK2 and CDK5) or (YSPTSPS)2KK peptide (for CDK7 and CDK9) in the presence of 15/0.15/1.5/1.5 […] ATP (for CDK2/CDK5/CDK7CDK9), […] [γ-^33P]ATP and of the test compound in a final volume of […]. The reaction buffer contained 60 mM HEPES-NaOH, pH 7.5, 3 mM MgCl2, 3 mM MnCl2, 3 mM Na-orthovanadate, 1.2 mM DTT, 2.5 mg/50 ml PEG20.000. The reactions were stopped by adding […] of 3% H3PO4. Aliquots were spotted onto P-81 phosphocellulose (Whatman, GE Healthcare Biosciences, Pittsburgh, USA), washed 3 times with 0.5% H3PO4 and finally air-dried. Kinase inhibition was quantified using a FLA-7000 digital image analyzer (Fujifilm, Tokyo, Japan).

HepG2 = test: MTT cytotoxicity assay (Example 30); assay type: cell-based; conditions: Homo sapiens, HepG2, 72 h; MTT, three days after drug addition; read-out: Inhibitory concentration IC50, HepG2
Description: Cytotoxicity of the compounds is the major property determining their anticancer effect in vivo. One of the parameters used, as the basis for cytotoxicity assays, is the metabolic activity of viable cells. For example, a microtiter assay, which uses (3-(4,5-Dimethylthiazol-2-yl)-2,5-diphenyltetrazolium bromide (MTT), is widely used to quantitate cell proliferation and cytotoxicity. For instance, this assay is used in drug screening programs and in chemosensitivity testing. Because only metabolically active living cells reduce MTT to correspond purple formazan dye, these assays detect viable cells exclusively. The quantity of reduced MTT corresponds to the number of vital cells in the culture.
We have been using the following cell lines: HUH-7 and PLC/PRF/5 cell lines were maintained in DMEM supplemented with 10% fetal bovine serum, penicillin (100 U/ml) and streptomycin (100 μg/ml). Unique HCC-1.2 (3p) and HCC-1.1 (3sp) cell lines (Zilj et al., 2009, Future Oncol, 5(8):1169-79) and Hep3B cells were cultivated in RPMI supplemented with 10% fetal bovine serum, penicillin (100 U/ml) and streptomycin (100 μg/ml). HepG2 cell line was maintained in EMEM supplemented with 10% fetal bovine serum, sodium pyruvate (0.11 g/1), penicillin (100 U/ml) and streptomycin (100 μg/ml). All cell lines were cultivated at 37° C. in 5% CO2. For cytotoxicity assays, 3000 cells (10000 cells in case of HepG2 cell line) were seeded into each well of 96 well plate and the next day tested compounds were added at various concentrations in triplicates. Three days after drug addition MTT stock solution (5 mg/ml) was added into each well and incubated for 4 h. After this incubation period, produced formazan was dissolved by DMSO and final absorbance was measured at 570 nm with Synergy H4 Hybrid Multi-Mode Microplate Reader.

[4] = read-out: Kinase inhibition IC50, CDK1

| SMILES | Relative caspase-3/7 activity in Hep3B cell line ([1]; 200 nM) | Relative caspase-3/7 activity in Hep3B cell line ([1]; 400 nM) | Relative caspase-3/7 activity in Hep3B cell line ([1]; 800 nM) | Relative caspase-3/7 activity in Hep3B cell line ([1]; 1600 nM) | Relative caspase-3/7 activity in PLC/PRF/5 cell line ([2]; compound concentration 40 nM) | Relative caspase-3/7 activity in PLC/PRF/5 cell line ([2]; compound concentration 80 nM) | Relative caspase-3/7 activity in PLC/PRF/5 cell line ([2]; compound concentration 160 nM) | Relative caspase-3/7 activity in PLC/PRF/5 cell line ([2]; compound concentration 320 nM) | Relative caspase-3/7 activity in PLC/PRF/5 cell line ([2]; compound concentration 640 nM) | Relative caspase-3/7 activity in PLC/PRF/5 cell line ([2]; compound concentration 1280 nM) | Concentration of maximum activation [3] | pIC50 (CDK1/cyclin B; [4]) | melting point | pIC50 (HepG2) | Relative caspase-3/7 activity in Hep3B cell line ([1]; 100 nM) | pIC50 (CDK1/cyclin B; Table 12, read-out: IC50, CDK1/cyklin B) |
| --- | --- | --- | --- | --- | --- | --- | --- | --- | --- | --- | --- | --- | --- | --- | --- | --- |
| NC1CCC(Nc2nc(NCc3ccc(-c4cccs4)cc3)c3ncn(C4CCCC4)c3n2)CC1 (centres unmarked) [BP2, N^2-(4-amino-cyclohexyl)-9-cyclopentyl-N^6-(4-thiophen-2-yl-benzyl)-9H-purine-2,6-diamine] | 1.09 | 1.40 | 3.73 | 7.77 | 1.09 | 1.14 | 1.30 | 2.24 | >5.00 | >5.00 | 930 nM | 6.92 | 225 to 226 °C | 6.35 |  |  |
| NC1CCC(Nc2nc(NCc3ccc(-c4ccco4)cc3)c3ncn(C4CCCC4)c3n2)CC1 (centres unmarked) [BP4, N^2-(4-amino-cyclohexyl)-9-cyclopentyl-N^6-(4-furan-2-yl-benzyl)-9H-purine-2,6-diamine] | 1.12 | 1.44 | 5.58 | 9.25 |  |  | 0.67 | 0.61 | 0.33 | 0.55 | 700 nM | 6.83 | 157 to 159 °C | 6.41 |  |  |
| NC1CCC(Nc2nc(NCc3ccc(-c4ccsc4)cc3)c3ncn(C4CCCC4)c3n2)CC1 (centres unmarked) [BP5, N^2-(4-amino-cyclohexyl)-9-cyclopentyl-N^6-(4-thiophen-3-yl-benzyl)-9H-purine-2,6-diamine] | 1.09 | 1.48 | 6.65 | 8.96 | 0.65 | 1.07 | 2.22 | 3.37 | >5.00 | >5.00 | 961 nM | 6.74 | 114 to 118 °C | 6.61 |  |  |
| NC1CCC(Nc2nc(NCc3ccc(-c4cccc(F)c4)cc3)c3ncn(C4CCCC4)c3n2)CC1 (centres unmarked) [BP12, N^2-(4-amino-cyclohexyl)-9-cyclopentyl-N^6-(3′-fluoro-biphenyl-4-ylmethyl)-9H-purine-2,6-diamine] | 1.12 | 4.20 | 7.04 | 9.85 | 0.93 | 1.27 | 3.10 | 2.95 | >5.00 | >5.00 | 986 nM | 6.37 | 146 to 148 °C | 6.61 |  |  |
| NC1CCC(Nc2nc(NCc3ccc(-c4ccoc4)cc3)c3ncn(C4CCCC4)c3n2)CC1 (centres unmarked) [BP13, N^2-(4-amino-cyclohexyl)-9-cyclopentyl-N^6-(4-furan-3-yl-benzyl)-9H-purine-2,6-diamine] | 0.95 | 1.71 | 5.65 | 7.81 | 0.99 | 1.37 | 1.72 | 2.28 | >5.00 | >5.00 | 970 nM | 6.69 | 154 to 156 °C | 6.59 |  |  |
| NC1CCC(Nc2nc(NCc3ccc(-c4ccco4)nc3)c3ncn(C4CCCC4)c3n2)CC1 (centres unmarked) [BP14, N^2-(4-amino-cyclohexyl)-9-cyclopentyl-N^6-(6-furan-2-yl-pyridin-3-ylmethyl)-9H-purine-2,6-diamine] | 3.60 | 6.55 | 9.00 | 9.50 | 1.99 | 2.86 | >5.00 | >5.00 | >5.00 | >5.00 | 137 nM | 7.30 |  | 6.68 | 0.99 | 7.30 |
